# Assay results reported in patent US9169254B2, “Spiroimidazolone derivative” (Chugai Seiyaku Kabushiki Kaisha, priority 2009, dated 2015).
# Target: T1, human PTH1 receptor (Homo sapiens, UniProt Q03431)
# T1 sequence (Q03431 27-593): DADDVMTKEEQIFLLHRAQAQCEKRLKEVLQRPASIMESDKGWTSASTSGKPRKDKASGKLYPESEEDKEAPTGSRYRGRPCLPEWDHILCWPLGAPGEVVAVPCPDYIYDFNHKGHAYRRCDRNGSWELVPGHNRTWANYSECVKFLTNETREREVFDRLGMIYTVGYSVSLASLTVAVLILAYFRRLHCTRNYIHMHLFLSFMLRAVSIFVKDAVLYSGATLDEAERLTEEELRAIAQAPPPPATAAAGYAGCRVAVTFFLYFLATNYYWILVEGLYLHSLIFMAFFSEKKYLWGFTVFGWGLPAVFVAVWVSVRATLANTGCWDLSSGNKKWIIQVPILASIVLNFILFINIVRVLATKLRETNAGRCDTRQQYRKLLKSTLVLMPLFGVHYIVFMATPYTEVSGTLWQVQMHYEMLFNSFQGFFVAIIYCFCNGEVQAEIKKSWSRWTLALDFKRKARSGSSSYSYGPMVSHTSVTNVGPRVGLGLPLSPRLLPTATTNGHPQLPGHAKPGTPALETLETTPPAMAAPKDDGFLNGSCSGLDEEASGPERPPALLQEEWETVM
# Test: In vitro cAMP signal activity in HKRK-B7 cells (LLC-PK1 cells overexpressing the human PTH1 receptor)
# Assay type: cell-based
# Conditions: HKRK-B7 cells; compound at 1×10^−3 M; […]; 0.1 µM
row,Compound,cAMP production activity (%)
1,"Cc1cc(C(=O)N2CCC(F)(CO)CC2)ccc1CCS(=O)(=O)N1CCC2(CC1)N=C([C@H]1CC[C@H](CC=C(F)F)CC1)NC2=O [Compound 973, 2-[4-(3,3-Difluoro-allyl)-cyclohexyl]-8-{2-[4-(4-fluoro-4-hydroxymethyl-piperidine-1-carbonyl)-2-methyl-phenyl}-ethanesulfonyl]-1,3,8-triaza-spiro[4.5]dec-1-en-4-one]",112

# Same assay, conditions: HKRK-B7 cells; compound at 1×10^−3 M; cAMP produced as percentage of that produced by hPTH(1-34) at 100 nM
row,Compound,cAMP production activity (%)
1,Cc1cc2ccc1CCS(=O)(=O)N1CCC3(CC1)N=C(NC3=O)c1cc(cc(C(F)(F)F)c1)OCCCCCCCN(C)C2=O [Compound 1407],6.6
2,"Cc1cc(C(=O)N(C)C)ccc1CCS(=O)(=O)N1CCC2(CC1)N=C(c1cc(C(F)(F)F)ccc1Cl)NC2=O [Compound 85, 4-{2-[2-(2-chloro-5-trifluoromethyl-phenyl)-4-oxo-1,3,8-triaza-spiro[4.5]dec-1-ene-8-sulfonyl]-ethyl}-3,N,N-trimethyl-benzamide]",76
3,"Cc1cc(C(=O)N(C)C)ccc1CCS(=O)(=O)N1CCC2(CC1)N=C(c1ccc(F)c(Cl)c1)NC2=O [Compound 89, 4-{2-[2-(3-chloro-4-fluoro-phenyl)-4-oxo-1,3,8-triaza-spiro[4.5]dec-1-ene-8-sulfonyl]-ethyl}-3,N,N-trimethyl-benzamide]",96
4,"O=C1NC(c2cccc(OC(F)(F)F)c2)=NC12CCN(S(=O)(=O)CCc1cccc3c1ccn3C[C@H](O)CO)CC2 [Compound 746, 8-{2-[1-((S)-2,3-dihydroxy-propyl)-1H-indol-4-yl]-ethanesulfonyl}-2-(3-trifluoromethoxy-phenyl)-1,3,8-triaza-spiro[4.5]dec-1-en-4-one]",120
5,Cc1cc2ccc1CCS(=O)(=O)N1CCC3(CC1)N=C(NC3=O)c1ccc(C(F)(F)F)c(c1)OCCCCCOCCN(C)C2=O [Compound 1432],18
6,"Cc1cc(C(=O)N(C)C)ccc1CCS(=O)(=O)N1CCC2(CC1)N=C(c1cccc(Br)c1)NC2=O [Compound 91, 4-{2-[2-(3-bromo-phenyl)-4-oxo-1,3,8-triaza-spiro[4.5]dec-1-ene-8-sulfonyl]-ethyl}-3,N,N-trimethyl-benzamide]",73

# Other lines, results leading:
row,cAMP production activity (%),Compound
1,92,"CCC[C@@H]1CCC[C@H](C2=NC3(CCN(S(=O)(=O)CCc4ccc(N5C(=O)CNC5=O)cc4C)CC3)C(=O)N2)C1 [Compound 949, 3-(3-methyl-4-{2-[4-oxo-2-((1S,3R)-3-propyl-cyclohexyl)-1,3,8-triaza-spiro[4.5]dec-1-ene-8-sulfonyl]-ethyl}-phenyl)-imidazolidine-2,4-dione]"
2,6.5,"CC(=O)N(CCN(C)C)c1cc(C)c(/C=C/S(=O)(=O)N2CCC3(CC2)N=C(c2cccc(OC(F)(F)F)c2)NC3=O)c(C)c1 [Compound 607, N-(2-dimethylamino-ethyl)-N-(3,5-dimethyl-4-{(E)-2-[4-oxo-2-(3-trifluoromethoxy-phenyl)-1,3,8-triaza-spiro[4.5]dec-1-ene-8-sulfonyl]-vinyl}-phenyl)-acetamide]"
3,19,"COc1ccccc1/C=C/S(=O)(=O)N1CCC2(CC1)N=C(C1CCCCC1)NC2=O [Compound 181, 2-cyclohexyl-8-[(E)-2-(2-methoxy-phenyl)-ethenesulfonyl]-1,3,8-triaza-spiro[4.5]dec-1-en-4-one]"
4,72,"Cc1cc(CN2C(=O)NC(C)(C)C2=O)cc(C)c1/C=C/S(=O)(=O)N1CCC2(CC1)N=C(C1CCC(C)CC1)NC2=O (stereo not drawn) [Compound 519, 3-(3,5-dimethyl-4-{(E)-2-[2-(4-methyl-cyclohexyl)-4-oxo-1,3,8-triaza-spiro[4.5]dec-1-ene-8-sulfonyl]-vinyl}-benzyl)-5,5-dimethyl-imidazolidine-2,4-dione]"
5,104,"Cc1cc(N(C)C(N)=O)cc(C)c1CCS(=O)(=O)N1CCC2(CC1)N=C(C1CCC(C(F)(F)F)CC1)NC2=O (stereo not drawn) [Compound 472, 1-(3,5-Dimethyl-4-{2-[4-oxo-2-(4-trifluoromethyl-cyclohexyl)-1,3,8-triaza-spiro[4.5]dec-1-ene-8-sulfonyl]-ethyl}-phenyl)-1-methyl-urea]"
